From ChEMBL document CHEMBL3885881, “DrugMatrix”

Species: Rattus norvegicus
Assay: DrugMatrix - Regimen: Daily Repeat
Assay type: toxicity, organism-based, Sprague-Dawley
Parameters: regimen Daily Repeat, gender Male, age 6-8 weeks
Conditions: in vivo, po, route oral GAVAGE, vehicle .5 % CMC; for BASOPHIL / EOSINOPHIL / ERYTHROCYTE COUNT / HEMATOCRIT / HEMOGLOBIN / LEUKOCYTE COUNT / LYMPHOCYTE / MEAN CORPUSCULAR HEMOGLOBIN / MEAN CORPUSCULAR HEMOGLOBIN CONCENTRATION / MEAN CORPUSCULAR VOLUME / MONOCYTE / NEUTROPHIL / PLATELET COUNT: tissue Blood; for ALANINE AMINOTRANSFERASE / ALKALINE PHOSPHATASE / ASPARTATE AMINOTRANSFERASE / BLOOD UREA NITROGEN / CHLORIDE / CHOLESTEROL / CREATINE PHOSPHOKINASE / CREATININE / GLUCOSE / PHOSPHORUS / POTASSIUM / SODIUM / TOTAL PROTEIN: tissue Plasma
[1] = 0 mg/kg, 72 h, dose level Control, time 3 day
[2] = 0 mg/kg, 120 h, dose level Control, time 5 day
[3] = 30 mg/kg, 72 h, dose level Low, time 3 day
[4] = 30 mg/kg, 120 h, dose level Low, time 5 day

For CCN(CC)CCNC(=O)c1cc(Cl)c(N)cc1OC [METOCLOPRAMIDE], the BASOPHIL [1] was 0%, the EOSINOPHIL [1] was 0.4% and the “ERYTHROCYTE COUNT” value [1] was 6.43 x10E6/uL. The HEMATOCRIT [1] was 37.36%, the HEMOGLOBIN [1] was 13.98 G/DL and the “LEUKOCYTE COUNT” value [1] was 13 x10E3/uL. The LYMPHOCYTE [1] was 81.4%, the “MEAN CORPUSCULAR HEMOGLOBIN” value [1] was 21.9 pg and the “MEAN CORPUSCULAR HEMOGLOBIN CONCENTRATION” value [1] was 37.4 G/DL. For the same compound, the “MEAN CORPUSCULAR VOLUME” value [1] was 58.52 fL, the MONOCYTE [1] was 0.4% and the NEUTROPHIL [1] was 18%. The “PLATELET COUNT” value [1] was 1386 x10E3/uL, the “ALANINE AMINOTRANSFERASE” value [1] was 39.33 u/L and the “ALKALINE PHOSPHATASE” value [1] was 283.83 u/L. For the same compound, the “ASPARTATE AMINOTRANSFERASE” value [1] was 69.5 u/L, the “BLOOD UREA NITROGEN” value [1] was 14.83 mg/dL and the CHLORIDE [1] was 107.33 MEQ/L. For the same compound, the CHOLESTEROL [1] was 75.17 mg/dL, the “CREATINE PHOSPHOKINASE” value [1] was 107.67 u/L and the CREATININE [1] was 0.48 mg/dL. The GLUCOSE [1] was 172.5 mg/dL, the PHOSPHORUS [1] was 10.48 mg/dL and the POTASSIUM [1] was 6.9 MEQ/L. The SODIUM [1] was 152.33 MEQ/L, the “TOTAL PROTEIN” value [1] was 5.9 G/DL and the BASOPHIL [2] was 0%. The EOSINOPHIL [2] was 0.4%, the “ERYTHROCYTE COUNT” value [2] was 6.96 x10E6/uL and the HEMATOCRIT [2] was 41.12%. The HEMOGLOBIN [2] was 15.24 G/DL, the “LEUKOCYTE COUNT” value [2] was 11.06 x10E3/uL and the LYMPHOCYTE [2] was 88.6%. The “MEAN CORPUSCULAR HEMOGLOBIN” value [2] was 21.96 pg, the “MEAN CORPUSCULAR HEMOGLOBIN CONCENTRATION” value [2] was 37.1 G/DL and the “MEAN CORPUSCULAR VOLUME” value [2] was 59.12 fL. For the same compound, the MONOCYTE [2] was 0.2%, the NEUTROPHIL [2] was 10.8% and the “PLATELET COUNT” value [2] was 1155.8 x10E3/uL. The “ALANINE AMINOTRANSFERASE” value [2] was 36.33 u/L, the “ALKALINE PHOSPHATASE” value [2] was 340.33 u/L and the “ASPARTATE AMINOTRANSFERASE” value [2] was 68.33 u/L. The “BLOOD UREA NITROGEN” value [2] was 15 mg/dL, the CHLORIDE [2] was 108.17 MEQ/L and the CHOLESTEROL [2] was 74.67 mg/dL. The “CREATINE PHOSPHOKINASE” value [2] was 110.67 u/L, the CREATININE [2] was 0.47 mg/dL and the GLUCOSE [2] was 171.33 mg/dL. The PHOSPHORUS [2] was 10.05 mg/dL, the POTASSIUM [2] was 6.7 MEQ/L and the SODIUM [2] was 155.5 MEQ/L. The “TOTAL PROTEIN” value [2] was 6.33 G/DL, the BASOPHIL [3] was 0% and the EOSINOPHIL [3] was 0%. For the same compound, the “ERYTHROCYTE COUNT” value [3] was 6.75 x10E6/uL, the HEMATOCRIT [3] was 41.55% and the HEMOGLOBIN [3] was 15.45 G/DL. The “LEUKOCYTE COUNT” value [3] was 12.45 x10E3/uL, the LYMPHOCYTE [3] was 81% and the “MEAN CORPUSCULAR HEMOGLOBIN” value [3] was 22.95 pg. The “MEAN CORPUSCULAR VOLUME” value [3] was 61.7 fL, the MONOCYTE [3] was 0% and the NEUTROPHIL [3] was 19%. The “PLATELET COUNT” value [3] was 1187 x10E3/uL, the “ALANINE AMINOTRANSFERASE” value [3] was 40.67 u/L and the “ALKALINE PHOSPHATASE” value [3] was 299.33 u/L. For the same compound, the “ASPARTATE AMINOTRANSFERASE” value [3] was 95.67 u/L, the “BLOOD UREA NITROGEN” value [3] was 12.33 mg/dL and the CHLORIDE [3] was 107.33 MEQ/L. The CHOLESTEROL [3] was 78.67 mg/dL, the “CREATINE PHOSPHOKINASE” value [3] was 421.67 u/L and the CREATININE [3] was 0.77 mg/dL. For the same compound, the GLUCOSE [3] was 175.67 mg/dL, the PHOSPHORUS [3] was 11.53 mg/dL and the POTASSIUM [3] was 7.6 MEQ/L. For the same compound, the SODIUM [3] was 150.67 MEQ/L, the “TOTAL PROTEIN” value [3] was 6.13 G/DL and the BASOPHIL [4] was 0%. For the same compound, the EOSINOPHIL [4] was 0%, the “ERYTHROCYTE COUNT” value [4] was 7 x10E6/uL and the HEMATOCRIT [4] was 41.57%. For the same compound, the HEMOGLOBIN [4] was 15.33 G/DL, the “LEUKOCYTE COUNT” value [4] was 13.57 x10E3/uL and the LYMPHOCYTE [4] was 91%. The “MEAN CORPUSCULAR HEMOGLOBIN” value [4] was 21.93 pg, the “MEAN CORPUSCULAR HEMOGLOBIN CONCENTRATION” value [4] was 36.87 G/DL and the “MEAN CORPUSCULAR VOLUME” value [4] was 59.4 fL. The MONOCYTE [4] was 0.33%, the NEUTROPHIL [4] was 8.67% and the “PLATELET COUNT” value [4] was 1231.67 x10E3/uL. For the same compound, the “ALANINE AMINOTRANSFERASE” value [4] was 41 u/L, the “ALKALINE PHOSPHATASE” value [4] was 236.67 u/L and the “ASPARTATE AMINOTRANSFERASE” value [4] was 70.33 u/L. For the same compound, the “BLOOD UREA NITROGEN” value [4] was 14.67 mg/dL, the CHLORIDE [4] was 104.33 MEQ/L and the CHOLESTEROL [4] was 63.33 mg/dL. The “CREATINE PHOSPHOKINASE” value [4] was 157 u/L, the CREATININE [4] was 0.5 mg/dL and the GLUCOSE [4] was 156.33 mg/dL. It also gave a PHOSPHORUS [4] of 9.97 mg/dL, a POTASSIUM [4] of 6.37 MEQ/L and an SODIUM [4] of 151.67 MEQ/L. The “TOTAL PROTEIN” value [4] was 6.23 G/DL.
